Assay results published in patent publication US8829197B2, “Salts and polymorphs of desazadesferrithiocin polyether analogues as metal chelation agents” (FerroKin Biosciences, Inc., priority 2008, dated 2014).
Where two headings read alike, the source gives them in different places.

Experiments:
[1] = Iron clearing efficiency in non-iron-overloaded, bile duct-cannulated rats (dose response po; po versus sc); type: in vivo, male Sprague-Dawley rats; conditions: mean ± SEM
Experimental: Cebus apella monkeys were obtained from World Wide Primates (Miami, Fla.). Male Sprague-Dawley rats were procured from Harlan Sprague-Dawley (Indianapolis, Ind.). Ultrapure salts were obtained from Johnson Matthey Electronics (Royston, UK). All hematological and biochemical studies were performed by Antech Diagnostics (Tampa, Fla.).
Cannulation of Bile Duct in Non-Iron-Overloaded Rats. The cannulation has been described previously in Bergeron, R J et al., Blood 1993, 81, 2166-2173 and Bergeron, R J et al., Ann. N.Y Acad.Sci. 1990, 612, 378-393. Bile samples were collected from male Sprague—Dawley rats (400-450 g) at 3 h intervals for 24 h. The urine sample was taken at 24 h. Sample collection and handling are as previously described. 57'58
Drug Preparation and Administration. In the iron clearing experiments the rats were given a single 50, 150, or 300 mol/kg dose of the drugs po and/or sc. The compounds were administered as a solution in water, 300 mol/kg dose only or (2) as the monosodium salt of the compound of interest (prepared by addition of the free acid to 1 equivalent of NaOH). The chelators were given to the monkeys po and sc at a dose of 150 tmol/kg. The drugs were prepared as for the rats; 2 was given po and sc as a solution in water.
Calculation of Iron Chelator Efficiency. ICE is calculated by dividing the actual amount of iron cleared by a given compound by the theoretical amount that should be cleared. The theoretical iron outputs of the chelators were generated on the basis of a 2:1 ligand:iron complex. The efficiencies in the rats and monkeys were calculated as set forth in Bergeron, R J et al., J. Med. Chem. 1999, 42, 2432-2440. Data are presented as the mean+the standard error of the mean; p-values were generated via a one-tailed Student's 1-test in which the inequality of variances was assumed; and a p-value of <0.05 was considered significant.
Chelator-Induced Iron Clearance and Iron Clearing Efficiency in Non-Iron-Overloaded Rodents Dose Response Studies. Because there is a limited amount of chelatable iron available in an animal at any given time, the iron clearance, and therefore iron-clearing efficiency of a ligand, is saturable. The key to managing this phenomenon can be found in the ferrokinetics and the dose-response properties of the ligand. In this regard, the dose-response along with the corresponding ferrokinetics of each compound given po were evaluated in the non-iron-overloaded, bile duct-cannulated rodent model.
Iron-Clearing Efficiency in Non-Iron-Overloaded Rodents and Iron-Loaded Primates: Oral versus Subcutaneous Administration. A similar protocol was carried out to confirm consistence of results and compare the effects of the compounds across species. Cebus apella monkeys and male Sprague-Dawley rats were used, 3-8 per group.

[2] = iron-loaded Cebus apella, mean ± SEM, cited from earlier work
[3] = non-iron-overloaded rats, mean ± SEM, cited from earlier work

| Structure (SMILES) | Iron-Clearing Efficiency (%) ([1]; dose 50 μmol/kg) | Iron-Clearing Efficiency (%) ([1]; dose 150 μmol/kg) | Iron-Clearing Efficiency (%) ([1]; dose 300 μmol/kg) | Primate ICE @ 150 μmol/kg ([2]; po) [%] | Primate ICE @ 150 μmol/kg ([2]; sc) [%] | Rodent ICE @ 300 μmol/kg ([3]; po) [%] | Rodent ICE @ 300 μmol/kg ([3]; sc) [%] |
| --- | --- | --- | --- | --- | --- | --- | --- |
| COCCOCCOCCOc1cccc(C2=N[C@@](C)(C(=O)O)CS2)c1O [(S)-3′-HO-DADFT, (S)-4,5-dihydro-2-[2-hydroxy-3-(3,6,9-trioxadecyloxy)phenyl]-4-methyl-4-thiazolecarboxylic acid] | 20.7 ± 4.4 | 18.7 ± 2.9% | 10.6 ± 4.4 | 23.0 ± 4.1 | 21.5 ± 3.2 | 10.6 ± 4.4 | 13.4 ± 4.5 |
| C[C@]1(C(=O)O)CSC(c2ccc(O)cc2O)=N1 [(S)-4′-HO-DADFT] | 21.7 ± 3.5 | 11.2 ± 4.2% | 5.5 ± 1.9 |  | 30.4 ± 7.2 | 5.5 ± 1.9 | 8.7 ± 2.6 |
| C[C@]1(C(=O)O)CSC(c2ccc(O)cc2O)=N1 [Deferitrin, (S)-2-(2,4-dihydroxyphenyl)-4,5dihydro-4-methyl-4-thiazolecarboxylic acid, reference compound] |  | 1.5 + 1.7% | 1.1 ± 0.8 | 16.8 ± 7.2 | 15.9 ± 2.7 | 1.1 ± 0.8 | 1.1 ± 0.6 |
